ChEMBL document CHEMBL1759950, “Design, synthesis and cytotoxic activities of novel β-amino alcohol derivatives” (Bioorg Med Chem Lett, 2011)

Tests used:
Type in all cases: functional, cell-based
A549 = test: Cytotoxicity against human A549 cells by MTT assay
MCF7 = test: Cytotoxicity against human MCF7 cells by MTT assay
HL-60 = test: Cytotoxicity against human HL60 cells by MTT assay
SMMC-7721 = test: Cytotoxicity against human SMMC7721 cells by MTT assay
SW480 = test: Cytotoxicity against human SW480 cells by MTT assay

`O=C(c1ccccc1)N(Cc1c2ccccc2cc2ccccc12)[C@H](CO)Cc1c[nH]c2ccccc12` was tested, and the IC50 (A549) was 13.2 µM, the IC50 (MCF7) was 17.4 µM and the IC50 (HL-60) was 7.03 µM. The IC50 (SMMC-7721) was 20.7 µM and the IC50 (SW480) was 30.7 µM.

With `Cn1cc(C[C@H](NCc2c3ccccc3cc3ccccc23)C(C)(C)O)c2ccccc21` the IC50 (A549) was 11.8 µM, the IC50 (MCF7) was 15.2 µM and the IC50 (HL-60) was 4.78 µM. The IC50 (SMMC-7721) was 15.5 µM and the IC50 (SW480) was 15.1 µM.

`CCCC(O)(CCC)[C@H](Cc1cn(CC)c2ccccc12)NCc1c2ccccc2cc2ccccc12` gave an IC50 (A549) greater than 40 µM, an IC50 (MCF7) greater than 40 µM and an IC50 (HL-60) greater than 40 µM. The IC50 (SMMC-7721) was greater than 40 µM and the IC50 (SW480) was greater than 40 µM.

For `CCC(O)(CC)[C@H](Cc1cn(C)c2ccccc12)NCc1c2ccccc2cc2ccccc12`, the IC50 (A549) was greater than 40 µM, the IC50 (MCF7) was greater than 40 µM and the IC50 (HL-60) was greater than 40 µM. The IC50 (SMMC-7721) was greater than 40 µM and the IC50 (SW480) was greater than 40 µM.

With `CCCCC(O)(CCCC)[C@H](Cc1cn(CC)c2ccccc12)NCc1c2ccccc2cc2ccccc12` the IC50 (A549) was greater than 40 µM, the IC50 (MCF7) was greater than 40 µM and the IC50 (HL-60) was greater than 40 µM. For the same compound, the IC50 (SMMC-7721) was greater than 40 µM and the IC50 (SW480) was greater than 40 µM.

`CC(C)(O)[C@H](Cc1c[nH]c2ccccc12)N(Cc1c2ccccc2cc2ccccc12)C(=O)c1ccccc1` was tested, and the IC50 (A549) was greater than 40 µM, the IC50 (MCF7) was greater than 40 µM and the IC50 (HL-60) was greater than 40 µM. For the same compound, the IC50 (SMMC-7721) was greater than 40 µM and the IC50 (SW480) was greater than 40 µM.

Work on `CCCCC(O)(CCCC)[C@H](Cc1cn(C)c2ccccc12)NCc1c2ccccc2cc2ccccc12` yielded an IC50 (A549) greater than 40 µM, an IC50 (MCF7) greater than 40 µM and an IC50 (HL-60) greater than 40 µM. It also gave an IC50 (SMMC-7721) greater than 40 µM and an IC50 (SW480) greater than 40 µM.

With `CCn1cc(C[C@H](NCc2c3ccccc3cc3ccccc23)C(O)(CC)CC)c2ccccc21` the IC50 (A549) was greater than 40 µM, the IC50 (MCF7) was greater than 40 µM and the IC50 (HL-60) was greater than 40 µM. It also gave an IC50 (SMMC-7721) greater than 40 µM and an IC50 (SW480) greater than 40 µM.

`Cn1cc(C[C@@H](CO)NCc2c3ccccc3cc3ccccc23)c2ccccc21` was tested, and the IC50 (A549) was 16.5 µM, the IC50 (MCF7) was 16.6 µM and the IC50 (HL-60) was 4.48 µM. For the same compound, the IC50 (SMMC-7721) was 15 µM and the IC50 (SW480) was 13.5 µM.

`OC[C@H](Cc1c[nH]c2ccccc12)NCc1c2ccccc2cc2ccccc12` gave an IC50 (A549) greater than 40 µM, an IC50 (MCF7) greater than 40 µM and an IC50 (HL-60) greater than 40 µM. It also gave an IC50 (SMMC-7721) greater than 40 µM and an IC50 (SW480) greater than 40 µM.

`CC(=O)N(Cc1c2ccccc2cc2ccccc12)[C@H](CO)Cc1c[nH]c2ccccc12` showed an IC50 (A549) of 15.2 µM, an IC50 (MCF7) of 16.1 µM and an IC50 (HL-60) of 3.64 µM. The IC50 (SMMC-7721) was 14.1 µM and the IC50 (SW480) was 17.3 µM.

For `CCn1cc(C[C@H](NCc2c3ccccc3cc3ccccc23)C(C)(C)O)c2ccccc21`, the IC50 (A549) was 15 µM, the IC50 (MCF7) was 13.9 µM and the IC50 (HL-60) was 5.44 µM. For the same compound, the IC50 (SMMC-7721) was 13.6 µM and the IC50 (SW480) was 17.6 µM.

Compound `CCC(O)(CC)[C@H](Cc1c[nH]c2ccccc12)NCc1c2ccccc2cc2ccccc12` has an IC50 (A549) of 11.6 µM, an IC50 (MCF7) of 24.3 µM and an IC50 (HL-60) of 12.2 µM. It also gave an IC50 (SMMC-7721) of 13 µM and an IC50 (SW480) greater than 40 µM.

With `CCn1cc(C[C@@H](CO)NCc2c3ccccc3cc3ccccc23)c2ccccc21` the IC50 (A549) was 16.5 µM, the IC50 (MCF7) was 14.9 µM and the IC50 (HL-60) was 6.18 µM. The IC50 (SMMC-7721) was 17.1 µM and the IC50 (SW480) was 17.4 µM.

For `CC(=O)N(Cc1c2ccccc2cc2ccccc12)[C@@H](Cc1c[nH]c2ccccc12)C(C)(C)O`, the IC50 (A549) was 14.5 µM, the IC50 (MCF7) was 15.6 µM and the IC50 (HL-60) was 6.49 µM. For the same compound, the IC50 (SMMC-7721) was 12 µM and the IC50 (SW480) was 17.2 µM.

In the case of `CC(C)(O)[C@H](Cc1c[nH]c2ccccc12)NCc1c2ccccc2cc2ccccc12`, the IC50 (A549) is reported as 11 µM, the IC50 (MCF7) is reported as 12.5 µM and the IC50 (HL-60) is reported as 9.55 µM. It also gave an IC50 (SMMC-7721) of 13.4 µM and an IC50 (SW480) of 11.7 µM.

`CCCC(O)(CCC)[C@H](Cc1c[nH]c2ccccc12)NCc1c2ccccc2cc2ccccc12` gave an IC50 (A549) of 10.9 µM, an IC50 (MCF7) of 23.9 µM and an IC50 (HL-60) of 13.2 µM. For the same compound, the IC50 (SMMC-7721) was 17.3 µM and the IC50 (SW480) was greater than 40 µM.

In the case of `CCCCC(O)(CCCC)[C@H](Cc1c[nH]c2ccccc12)NCc1c2ccccc2cc2ccccc12`, the IC50 (A549) is reported as greater than 40 µM, the IC50 (MCF7) is reported as greater than 40 µM and the IC50 (HL-60) is reported as greater than 40 µM. It also gave an IC50 (SMMC-7721) greater than 40 µM and an IC50 (SW480) greater than 40 µM.

Compound `CCCC(O)(CCC)[C@H](Cc1cn(C)c2ccccc12)NCc1c2ccccc2cc2ccccc12` has an IC50 (A549) greater than 40 µM, an IC50 (MCF7) greater than 40 µM and an IC50 (HL-60) greater than 40 µM. It also gave an IC50 (SMMC-7721) greater than 40 µM and an IC50 (SW480) greater than 40 µM.
